Source: patent publication US20250002450A1, “CATIONIC STEROID COMPOUNDS, METHOD OF OBTAINING THEREOF, FORMULATIONS COMPRISING THEREOF AND THEIR USES” (UNIVERSIDADE DO PORTO, priority 2021, published 2025)
≈ marks a conversion by molar mass, not a printed value.

Tests used:
[1] = tested on: Escherichia coli ATCC 25922; assay: Antibacterial MIC/MBC (broth microdilution); assay type: cell-based; details: Escherichia coli ATCC 25922
Description: Twelve reference bacterial strains and nine MDR clinically relevant bacterial strains were used in this study. Gram-negative bacteria comprised reference strains E. coli ATCC 25922, K. pneumoniae ATCC 13883, Salmonella enterica serovar Typhimurium CECT 443, P. aeruginosa ATCC 27853, A. baumannii ATCC 19606, C. jejuni ATCC 33560 (ATCC—American Type Culture Collection; CECT—Colección Espanola de Cultivos Tipo); clinical isolates E. coli SA/2, an extended-spectrum β-lactamase (ESBL)-producing strain and P. aeruginosa 33b, a pan-drug-resistant isolate; and animal isolates C. jejuni P5/4, a ciprofloxacin-resistant strain, C. jejuni 4432, C. jejuni 4433, C. jejuni 4448, and E. coli 2252, a COL-resistant strain [42]. Gram-positive strains included S. aureus ATCC 29213, E. faecalis ATCC 29212, S. pyogenes ATCC 19615, and environmental isolates methicillin-resistant S. aureus (MRSA) 66/1 [43], and VAN-resistant enterococci (VRE) E. faecalis B3/101 [44]. Gram-negative fish pathogens Yersinia ruckeri ATCC 29473, Listonella anguillarum ATCC 1924, and Tenacibaculum maritimum ATCC 43397 were also included.
Strains were kept in Trypto-Casein Soy agar (TSA—Biokar Diagnostics, Allone, Beauvais, France) slants and, before each assay, were sub-cultured in Mueller-Hinton agar (MHA—Biokar Diagnostics, Allone, Beauvais, France). Y. ruckeri ATCC 29473 and L. anguillarum ATCC 1924 were kept in Nutrient Agar (Condalab, Madrid, Spain) and T. maritimum ATCC 43397 was kept in TMM agar (Condalab, Madrid, Spain), and were sub-cultured in the respective culture media before each assay. For S. pyogenes ATCC 19615, CAMHB was supplemented with 3.75% lysed horse blood (LBH—Oxoid, Basingstoke, England), whereas for C. jejuni it was supplemented with 2.5% LHB. Colony-forming unit counts of the inoculum were conducted to determine the initial inoculum size (which should be approximately 5×10^5 CFU/mL). Sterility and growth controls were included in each assay. The 96-well U-shaped untreated polystyrene microtiter plates were incubated for 20 h at 37 degrees C. (42 degrees C. for C. jejuni, in a microaerophilic atmosphere) and the minimal inhibitory concentration (MIC) was determined as the lowest concentration of compound that prevented visible growth. The minimal bactericidal concentration (MBC) was determined by spreading 100 μL of the content of the wells with no visible growth on MH plates. The MBC was determined as the lowest concentration of compound that killed 99.9% of the initial inoculum after overnight incubation at 37 degrees C. Two independent assays were performed for reference and MDR strains.
An initial screening of the antibacterial activity of the compounds was performed by the Kirby-Bauer disk diffusion method, as recommended by the Clinical and Laboratory Standards Institute (CLSI). Briefly, sterile 6 mm blank paper disks (Oxoid, Basingstoke, England) impregnated with 15 μg of each compound were placed on inoculated MH agar plates. A blank disk with dimethylsulfoxide (DMSO) was used as a negative control. MH inoculated plates were incubated for 18-20 h at 37 degrees C. At the end of incubation, the inhibition halos where measured. The MIC was used to determine the antibacterial activity of each compound, in accordance with the recommendations of the CLSI. Two-fold serial dilutions of the compounds were prepared in Mueller-Hinton Broth 2 (MHB2—Sigma-Aldrich, St. Louis, MO, USA) within the concentration range of 0.062-64 μg/mL. CTX ranging between 0.031-16 μg/mL was used as a control. Sterility and growth controls were included in each assay. Purity checks and colony counts of the inoculum suspensions were also performed in order to ensure that the final inoculum density closely approximates the intended number (5×10^5 CFU/mL). The MIC was determined as the lowest concentration of compound that inhibited growth of the bacteria. The MBC was assessed by spreading 10 μL of culture collected from wells showing no visible growth on MH agar plates. […]

E. coli ATCC 25922 [2] = assay: Enzymatic/metabolic activity, MTT assay; assay type: cell-based, Escherichia coli; details: 4 μg/mL; 0, 1, 18 h
Method: To determine whether compound 1 could also affect enzymatic activity, 2-(4,5-dimethyl-2-thiazolyl)-3,5-diphenyl-2H-tetrazolium bromide (MTT) assay was performed. This assay can also be used as an indirect measure of cellular viability, as tetrazolium salts are reduced to purple formazan by metabolically active cells. E. coli ATCC 25922 cells were treated with compound 1 and COL and AMP were used as controls, as described above. Measurements were made at 0, 1, and 18 h.
Enzymatic activity was evaluated by the MTT assay, as previously described, with some modifications. Cell suspensions of E. coli ATCC 25922 were prepared as described above, as well as test conditions and controls. At each time point (0, 1, and 18 h), 500 μL aliquots were collected, centrifuged at 3500 rpm for 10 min, the supernatant was removed, and 300 μL of MTT solution (0.5 mg/mL in CAMHB, at 36 degrees C.) (Thiazolyl Blue Tetrazolium Bromide, Alfa Aesar, Ward Hill, MA, USA) were added. After a 30 min incubation at 36° C., the insoluble formazan product resulting from the conversion of MTT by metabolically active cells was solubilized with 300 μL of DMSO. 100 μL of each sample were transferred in duplicate to the wells of a microtiter plate and the extent of the reduction of MTT to formazan was quantified by measuring the absorbance at 570 nm (Thermo Scientific Multiskan® EX, Thermo Fisher Scientific, Waltham, MA, USA). Three independent assays were performed in duplicate, and results are expressed as a percentage of untreated control.

E. coli ATCC 25922 [3] = assay: Membrane integrity, propidium iodide influx assay (SYTO 9/PI); assay type: cell-based, Escherichia coli; details: 4 μg/mL; 0, 1, 18 h
Method: The influx of PI in E. coli ATCC 25922 treated with 2×MIC, MIC, and ½×MIC of compound 1 was evaluated using a commercial kit that includes fluorescent nucleic acid stains SYTO® 9 and PI. SYTO® 9 can enter cells with intact or damaged membranes, generally labeling both, whereas PI only penetrates cells with severe membrane lesions, causing a reduction in SYTO® 9 fluorescence when both dyes are present.
In these assays, COL and AMP were used as controls. COL is a polycationic antimicrobial peptide with a complex mode of action, that ultimately solubilizes the bacterial cell membrane. AMP is an aminopenicillin that inhibits cell wall synthesis by inhibiting penicillin-binding proteins. E. coli ATCC 25922 cells were treated with compound 1 and, at several time-points (0, 1, and 18 h), samples were taken, and SYTO® 9/PI ratio was determined ([FIG. 4]). The entrance of PI is reflected in a reduction of this ratio.
Briefly, E. coli ATCC 25922 colonies from overnight cultures in MHA were suspended in CAMHB to prepare an inoculum with a final concentration of approximately 5×10^5 CFU/mL. The tubes were incubated overnight at 36° C. in a water bath with shaking. Following this, the cell suspensions were centrifuged at 3500 rpm for 15 min, the supernatant was removed, the cells were carefully resuspended in fresh CAMHB and the suspension was adjusted to 0.5 McFarland. An aliquot of this suspension was then added to each tube of CAMHB alone (control) or CAMHB plus an appropriate amount of test compound. […] The tubes were incubated at 36 degrees C. in a water bath with shaking and, at pre-established time points (0, 1, and 18 h), […] aliquots were retrieved for further analysis. After the exposure time, cells were washed two times, resuspended in 0.85% NaCl, and 100 μL of each cell suspension was distributed in the wells of a microtiter plate, in triplicate. 100 μL of a mixture of 30 μM PI and 5 μM SYTO® 9 prepared in ultrapure water were added to each well, and the plates were incubated at room temperature, in the dark, for 15 min. The fluorescence intensity of the stained bacterial suspensions was determined using a microplate reader (Synergy HT, BioTek Instruments, Winooski, VT, USA) by two consecutive measurements with excitation wavelength 485 nm and emission wavelength 528 nm (SYTO® 9) or 590 nm (PI). Data were analyzed by subtracting background fluorescence from each sample, dividing the fluorescence intensity of SYTO® 9 by fluorescence intensity of PI, and the results are presented as a percentage of control. Three independent assays were performed in triplicate for each experimental condition.

SMILES: CC1(C)S[C@@H]2[C@H](NC(=O)[C@H](N)c3ccccc3)C(=O)N2[C@H]1C(=O)O [AMP]
- MIC [1]: 4 µg/mL (≈ 11.4 µM)
- metabolic activity (MTT) vs untreated control (E. coli ATCC 25922 [2]): did not affect the metabolic activity
- reduction in SYTO 9/PI ratio vs untreated control (E. coli ATCC 25922 [3]): not
